Experimental data as given in US6608082B1, “Treatment of erectile dysfunction using isoquinoline compound melanocortin receptor ligands” (Lion Bioscience AG, priority 1998, dated 2003).
Read-outs that look alike come from different tables or passages of the source.

Experiments:
[1] = target: T1, MCR-1 (Homo sapiens, UniProt Q01726); experiment: Melanocortin receptor binding assay, competition with 125I-HP 467, HEK 293 cells expressing hMCR-1; settings: for IC50: read-out: MC-1 IC50; for effectiveness as MC receptor ligand: binding to MC receptors, Table 1
T1 construct: expressed in transfected cells; host or cells: HEK 293
Method in brief: (§1)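 Intact-cell competition binding, 2.5 hr at 37 °C, in PBS/10% calf serum/1 mM CaCl2; hMCR-4 cells at 4×10^3 per tube, hMCR-1 cells at 2×10^4 per tube. Filtration on BSA/CaCl2-soaked GF/B, cold 50 mM Tris pH 7.4 washes, scintillation count.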

[2] = target: T2, MCR-4 (Homo sapiens, UniProt P32245); experiment: Melanocortin receptor binding assay, competition with 125I-HP 467, HEK 293 cells expressing hMCR-4; settings: read-out: MC-4 IC50
T2 construct: expressed in transfected cells; host or cells: HEK 293
Method in brief: as §1

[3] = competition with 125I-HP 467, HEK 293 cells expressing MCR-1
[4] = competition with 125I-HP 467, HEK 293 cells expressing MCR-4
[5] = inhibition of binding of 125I-HP 467, HEK 293 cells expressing MCR-1
[6] = inhibition of binding of 125I-HP 467, HEK 293 cells expressing MCR-4

T1 sequence (Q01726 whole entry): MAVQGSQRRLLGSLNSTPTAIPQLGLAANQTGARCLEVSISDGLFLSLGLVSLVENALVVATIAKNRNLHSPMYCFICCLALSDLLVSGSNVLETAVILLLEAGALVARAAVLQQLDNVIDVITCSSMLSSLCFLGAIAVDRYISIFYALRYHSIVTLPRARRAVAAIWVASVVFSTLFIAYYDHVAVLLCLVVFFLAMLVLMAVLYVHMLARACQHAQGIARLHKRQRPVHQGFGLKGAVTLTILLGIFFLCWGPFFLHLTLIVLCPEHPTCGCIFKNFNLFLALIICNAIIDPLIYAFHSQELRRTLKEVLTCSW
T2 sequence (P32245 whole entry): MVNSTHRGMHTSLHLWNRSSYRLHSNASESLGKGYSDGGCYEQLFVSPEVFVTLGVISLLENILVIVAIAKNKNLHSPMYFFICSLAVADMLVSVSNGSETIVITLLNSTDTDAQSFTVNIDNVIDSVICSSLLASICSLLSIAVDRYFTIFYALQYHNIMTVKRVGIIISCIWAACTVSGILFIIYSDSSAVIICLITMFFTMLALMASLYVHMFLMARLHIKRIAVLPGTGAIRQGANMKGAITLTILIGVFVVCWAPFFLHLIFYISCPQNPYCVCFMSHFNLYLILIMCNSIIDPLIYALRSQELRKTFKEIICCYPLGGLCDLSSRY

| Structure (SMILES) | IC50 [1, 3] [nM] | IC50 [2, 4] [nM] | effectiveness as MC receptor ligand [1] | IC50 [1, 5] [nM] | IC50 [2, 6] [nM] |
| --- | --- | --- | --- | --- | --- |
| CCCCNc1ccc(C2C(CNCCc3ccccc3)c3ccccc3CN2CCCCC(CN)NCCc2ccc3ccccc3c2)cc1 (stereo not shown) [TRG 2411-83] | 570 | 1060 |  |  |  |
| CCCCNc1ccc(C2C(CNCCc3ccccc3)c3ccccc3CN2CCCCC(CN)NCCC2CCCCC2)cc1 (stereo not shown) [TRG 2411-84] | 220 | 760 |  |  |  |
| CCCCNc1ccc(C2C(CNC3CCCCC3)c3ccccc3CN2CCCCC(CN)NCCCC)cc1 (stereo not shown) [TRG 2411-88] | 240 | 1500 |  |  |  |
| CCCCNc1ccc(C2C(CNC3CCCCC3)c3ccccc3CN2CCCCC(CN)NCCc2ccccc2)cc1 (stereo not shown) [TRG 2411-90] | 250 | 1170 |  |  |  |
| CCCCNc1ccc(C2C(CNC3CCCCC3)c3ccccc3CN2CCCCC(CN)NCc2ccc(Cl)cc2)cc1 (stereo not shown) [TRG 2411-94] | 90 | 1710 |  |  |  |
| CCCCNc1ccc(C2C(CNC3CCCCC3)c3ccccc3CN2CCCCC(CN)NCc2ccc(OC)cc2)cc1 (stereo not shown) [TRG 2411-95] | 110 | 1030 |  |  |  |
| CCCCNc1ccc(C2C(CNC3CCCCC3)c3ccccc3CN2CCCCC(CN)NCCc2ccc3ccccc3c2)cc1 (stereo not shown) [TRG 2411-96] | 600 | 1650 |  |  |  |
| CCCCNc1ccc(C2C(CN)c3ccccc3CN2CCCCC(CN)NCCCC)cc1 (stereo not shown) [TRG 2411-102] | 90 | 1170 |  |  |  |
| CCCCNc1ccc(C2C(CN)c3ccccc3CN2CCCCC(CN)NCCc2ccccc2)cc1 (stereo not shown) [TRG 2411-104] | 160 | 590 |  |  |  |
| CCCCNc1ccc(C2C(CN)c3ccccc3CN2CCCCC(CN)NCCc2ccc(Br)cc2)cc1 (stereo not shown) [TRG 2411-105] | 210 | 910 |  |  |  |
| CCCCNc1ccc(C2C(CN)c3ccccc3CN2CCCCC(CN)NCc2ccc(OC)cc2)cc1 (stereo not shown) [TRG 2411-109] | 100 | 1400 |  |  |  |
| CCCCNc1ccc(C2C(CN)c3ccccc3CN2CCCCC(CN)NCCc2ccc3ccccc3c2)cc1 (stereo not shown) [TRG 2411-110] | 100 | 1050 |  |  |  |
| CCCCNc1ccc(C2C(CN)c3ccccc3CN2CCCCC(CN)NCCC2CCCCC2)cc1 (stereo not shown) [TRG 2411-111] | 40 | 1470 | particularly effective MC receptor ligands |  |  |
| CCCCNc1ccc(C2C(CN)c3ccccc3CN2CCCCC(CN)NCCN)cc1 (stereo not shown) [TRG 2411-112] | 200 | 1450 |  |  |  |
| CCNC(CN)CCCN1Cc2ccccc2C(CNCCc2ccccc2)C1c1ccc(-c2ccccc2)cc1 (stereo not shown) [TRG 2411-115] | 820 | 1430 |  |  |  |
| NCC(CCCN1Cc2ccccc2C(CNCCc2ccccc2)C1c1ccc(-c2ccccc2)cc1)NCCc1ccccc1 (stereo not shown) [TRG 2411-116] | 1240 | 1980 |  |  |  |
| NCC(CCCN1Cc2ccccc2C(CNCCc2ccccc2)C1c1ccc(-c2ccccc2)cc1)NCc1ccccc1 (stereo not shown) [TRG 2411-126] | 1320 | 1490 |  |  |  |
| CCCCNC(CN)CCCN1Cc2ccccc2C(CNC2CCCCC2)C1c1ccc(-c2ccccc2)cc1 (stereo not shown) [TRG 2411-133] | 1460 | 1590 |  |  |  |
| COCCNC(CN)CCCN1Cc2ccccc2C(CN)C1c1ccc(-c2ccccc2)cc1 (stereo not shown) [TRG 2411-146] | 1220 | 1460 |  |  |  |
| CCCCNC(CN)CCCN1Cc2ccccc2C(CN)C1c1ccc(-c2ccccc2)cc1 (stereo not shown) [TRG 2411-147] | 1260 | 1190 |  |  |  |
| NCC(CCCN1Cc2ccccc2C(CN)C1c1ccc(-c2ccccc2)cc1)NCC1CCCCC1 (stereo not shown) [TRG 2411-148] | 960 | 1960 |  |  |  |
| NCC(CCCN1Cc2ccccc2C(CN)C1c1ccc(-c2ccccc2)cc1)NCc1ccccc1 (stereo not shown) [TRG 2411-149] | 1170 | 490 |  |  |  |
| CCNc1ccc(C2C(CNCCc3ccccc3)c3ccccc3CN2CCCC(N)CN)cc1 (stereo not shown) [TRG 2411-150] |  |  |  | 120 | 4540 |

| Structure (SMILES) | IC50 [1, 3] [nM] | IC50 [2, 4] [nM] | effectiveness as MC receptor ligand [1] | IC50 [1, 5] [nM] | IC50 [2, 6] [nM] |
| --- | --- | --- | --- | --- | --- |
| CCNc1ccc(C2C(CNCCc3ccccc3)c3ccccc3CN2CCCC(CN)NC)cc1 (stereo not shown) [TRG 2411-151] |  |  |  | 90 | 1780 |
| CCNc1ccc(C2C(CNCCc3ccccc3)c3ccccc3CN2CCCC(CN)NCC)cc1 (stereo not shown) [TRG 2411-152] |  |  |  | 60 | 520 |
| CCCCNC(CN)CCCN1Cc2ccccc2C(CNCCc2ccccc2)C1c1ccc(NCC)cc1 (stereo not shown) [TRG 2411-153] |  |  |  | 80 | 590 |
| CCNc1ccc(C2C(CNCCc3ccccc3)c3ccccc3CN2CCCC(CN)NCCc2ccccc2)cc1 (stereo not shown) [TRG 2411-155] |  |  |  | 90 | 720 |
| CCNc1ccc(C2C(CNCCc3ccccc3)c3ccccc3CN2CCCC(CN)NCCc2ccc(Br)cc2)cc1 (stereo not shown) [TRG 2411-156] |  |  |  | 120 | 660 |
| CCNc1ccc(C2C(CNCCc3ccccc3)c3ccccc3CN2CCCC(CN)NCCc2ccc(OC)cc2)cc1 (stereo not shown) [TRG 2411-157] |  |  |  | 110 | 670 |
| CCNc1ccc(C2C(CNCCc3ccccc3)c3ccccc3CN2CCCC(CN)NCc2ccccc2)cc1 (stereo not shown) [TRG 2411-158] |  |  |  | 100 | 410 |
| CCNc1ccc(C2C(CNCCc3ccccc3)c3ccccc3CN2CCCC(CN)NCc2ccc(Cl)cc2)cc1 (stereo not shown) [TRG 2411-159] |  |  |  | 100 | 350 |
| CCNc1ccc(C2C(CNCCc3ccccc3)c3ccccc3CN2CCCC(CN)NCc2ccc(OC)cc2)cc1 (stereo not shown) [TRG 2411-160] |  |  |  | 90 | 510 |
| CCNc1ccc(C2C(CNCCc3ccccc3)c3ccccc3CN2CCCC(CN)NCCc2ccc3ccccc3c2)cc1 (stereo not shown) [TRG 2411-161] |  |  |  | 160 | 640 |
| CCNc1ccc(C2C(CNCCc3ccccc3)c3ccccc3CN2CCCC(CN)NCCC2CCCCC2)cc1 (stereo not shown) [TRG 2411-162] |  |  |  | 110 | 1220 |
| CCNc1ccc(C2C(CNC3CCCCC3)c3ccccc3CN2CCCC(CN)NCC)cc1 (stereo not shown) [TRG 2411-164] |  |  |  | 180 | 4020 |
| CCNc1ccc(C2C(CNC3CCCCC3)c3ccccc3CN2CCCC(CN)NCCc2ccc(Br)cc2)cc1 (stereo not shown) [TRG 2411-167] |  |  |  | 370 | 1110 |
| CCNc1ccc(C2C(CNC3CCCCC3)c3ccccc3CN2CCCC(CN)NCc2ccccc2)cc1 (stereo not shown) [TRG 2411-169] |  |  |  | 220 | 440 |
| CCNc1ccc(C2C(CNC3CCCCC3)c3ccccc3CN2CCCC(CN)NCCC2CCCCC2)cc1 (stereo not shown) [TRG 2411-173] |  |  |  | 140 | 1590 |
| CCNc1ccc(C2C(CN)c3ccccc3CN2CCCC(CN)NCCc2ccccc2)cc1 (stereo not shown) [TRG 2411-179] |  |  |  | 70 | 1430 |
| CCNc1ccc(C2C(CN)c3ccccc3CN2CCCC(CN)NCCc2ccc(Br)cc2)cc1 (stereo not shown) [TRG 2411-180] |  |  |  | 120 | 1060 |
| CCNc1ccc(C2C(CN)c3ccccc3CN2CCCC(CN)NCc2ccc(OC)cc2)cc1 (stereo not shown) [TRG 2411-184] |  |  |  | 90 | 1610 |
| CCNc1ccc(C2C(CN)c3ccccc3CN2CCCC(CN)NCCC2CCCCC2)cc1 (stereo not shown) [TRG 2411-186] |  |  | particularly effective MC receptor ligands | 30 | 580 |
| CCCCNc1ccc(C2C(CNCCc3ccccc3)c3ccccc3CN2CCCC(CN)NCC)cc1 (stereo not shown) [TRG 2411-190] |  |  |  | 190 | 210 |
| CCCCNc1ccc(C2C(CNCCc3ccccc3)c3ccccc3CN2CCCC(CN)NCCCC)cc1 (stereo not shown) [TRG 2411-191] |  |  |  | 120 | 520 |
| CCCCNc1ccc(C2C(CNCCc3ccccc3)c3ccccc3CN2CCCC(CN)N2CCCC2)cc1 (stereo not shown) [TRG 2411-192] |  |  |  | 70 | 880 |
| CCCCNc1ccc(C2C(CNCCc3ccccc3)c3ccccc3CN2CCCC(CN)NCCc2ccccc2)cc1 (stereo not shown) [TRG 2411-193] |  |  |  | 150 | 1240 |
